Values of other authors, collected in patent publication US8835508B2, “Stable aqueous solution containing sodium pyruvate, and the preparation and use thereof” (priority 2006, dated 2014).
Like-named read-outs stand apart in the source and are kept apart here.

Conditions: for content of dimer: 3.0 M (3,000 mM) pure NaPyr in water, room temperature

- content of dimer (pH 7.3, after 24 hours): 9.1%
- content of dimer (pH 7.3, after 48 hours): 18.4%
- stability of aqueous solution containing NaPyr (22° C., pH >6.0, HPLC and NMR): unstable
Structure (SMILES): CC(=O)C(=O)[O-].[Na+] [NaPyr, sodium pyruvate]
